Assays:
RHCC-NT [1] = biological target: T1, RHCC-NT (Staphylothermus marinus, UniProt Q54436); experiment: Fluorescence binding assay (steady-state titration of PAH with RHCC-NT); details: for binding to RHCC-NT / concentration dependent fluorescence changes: result in words; for ∆G, molar Gibbs free energy for the ligand binding: ∆G = RT ln (Kd); for Fluorescence intensity at 350 nm (λexc = 275 nm): 4 µM naphthalene
Protocol: Fluorescence assays were used to examine the binding of RHCC-NT to PAHs as they allow discrimination between PAHs in solution and those bound to the RHCC-NT, as well as the ability to monitor PAH uptake as a function of time (Fig. 2). […] In order to minimize contributions from tyrosine fluorescence, the fluorescence emission at 350 nm was used to determine the binding affinity of naphthalene to RHCC-NT (Table 1).
Initial binding screens were performed by titrating known amounts of a single PAH with varying amounts of RHCC-NT. All assays were performed in 20 mM sodium phosphate solution containing 1% ethanol buffered at pH 7 and adjusted to 150 mM ionic strength. All samples were prepared in triplicate to a final volume of 1 mL and were left to incubate overnight at 25 °C to ensure complete equilibration. PAH fluorescence was then measured as a function of RHCC-NT concentration. Steady-state fluorescence spectra were collected using Fluorolog-3 Horiba Jobin Yvon spectrofluorometer (Edison, NJ). Excitation wavelength was set to 275 nm for naphthalene, 300 nm for acenaphthene, 350 nm for anthracene, 334 nm for chrysene and pyrene, 290 nm for acenaphthylene and fluorene. Excitation and emission slits were set to 1 nm band pass resolution. All samples were measured at 20 °C in a 10 × 3 mm^2 quartz cuvette. The obtained fluorescence data was used to calculate the binding constant Kd assuming that each PAH binds to one of two equal bindings sites in the RHCC-NT, cavity 2 or 3. The fraction of PAH bound and the concentration of unbound RHCC-NT was determined based on the following equation:1 Fractionbound=y=F−F0/F∞−F0=Bmax[RHCCfree]/Kd+[RHCCfree] where F is the experimental fluorescence signal of each sample, F∞ is the fluorescence of the PAH at infinite protein concentration, F0 is the fluorescence of the free PAH in solution, Bmax is a constant and equal to 1. The y values thus obtained were plotted as a function of free RHCC concentrations. The plotted data were then fit to Equation (1) using Sigma Plot 13 (Point Richmond, CA), yielding the binding constant Kd for each PAH bound to RHCC-NT[27].

RHCC-tetrabrachion = experiment: GC-MS/MS uptake of PAHs; format: binding, Staphylothermus marinus; details: result in words
[2] = set-up: method as in PMID 26626387; details: in kJ/mol; cited from earlier work
RHCC-NT [3] = biological target: T1, RHCC-NT; experiment: Time-scale binding assay (uptake of PAH by RHCC-NT, fluorescence); details: for time to reach equilibrium: under the conditions of the pyrene time-scale study (10 °C), data not shown; for Py-value (ratio of fluorescence emission intensities of Band I/III): 2 µM pyrene, 70 µM RHCC
Description: To probe the uptake kinetics of low MW PAHs, we examined the fluorescence characteristics of pyrene in solvent in comparison to RHCC-NT bound pyrene (Fig. 4). As the bulkiest of the PAHs tested, it is expected that pyrene provides an upper bound on the equilibration time of these low MW PAHs. We took advantage of the major vibronic bands (I and III) of pyrene with defined peaks at ~373 and 384 nm[11],[12]. […] The ratio of the fluorescence emission intensities of Band I/III is defined as Py-value[13],[14] and can be employed to detect polarity in the vicinity of the probed microenvironment.
The time-scale assay was set-up by addition of pyrene to a 35-fold molar excess of RHCC in 20 mM sodium phosphate solution buffered at pH 7 and adjusted to 150 mM ionic strength. Both solutions were equilibrated to 10 °C prior to the assay. Data was collected on a Fluorolog-3 Horiba Jobin Yvon Spectrofluorometer (Edison, NJ). Excitation wavelength was set to 334 nm; emission was monitored at 384 nm; excitation and emission slits were set to 1 nm band pass resolution. Temperature was kept at 10 °C and controlled with a water bath throughout the experiment. Data was acquired every 1 minute for the first 25 minutes, following by 30 minute intervals until fluorescence signal plateaued and equilibrium achieved.

| Structure (SMILES) | binding to RHCC-NT / concentration dependent fluorescence changes (RHCC-NT [1]) | uptake by RHCC-tetrabrachion (RHCC-tetrabrachion) | Kd (RHCC-NT [1]) [µM] | ∆G, molar Gibbs free energy for the ligand binding (RHCC-NT [1]) [kJ/mol] | ΔGsolv, measured solvation free energy [2] | time to reach equilibrium (RHCC-NT [3]) | also measured |
| --- | --- | --- | --- | --- | --- | --- | --- |
| c1ccc2c(c1)-c1cccc3cccc-2c13 [fluoranthene] | did not exhibit any concentration dependent fluorescence changes | uptake |  |  |  |  |  |
| c1ccc2c(c1)Cc1ccccc1-2 [Fluorene, fluorene] |  |  | 5.4 ± 1.6 | -29.9 |  |  |  |
| c1ccc2c(c1)ccc1c3ccccc3ccc21 [Chrysene, chrysene] |  |  | 27 ± 5.6 | -25.9 |  |  |  |
| c1ccc2c(c1)ccc1ccccc12 [phenanthrene] | did not exhibit any concentration dependent fluorescence changes | uptake |  |  | −16.2 ± 2.5 |  |  |
| c1cc2c3c(cccc3c1)CC2 [Acenaphthene, acenaphthene] |  |  | 8.9 ± 1.8 | -28.6 |  | ca. 1 min |  |
| c1cc2ccc3cccc4ccc(c1)c2c34 [Pyrene, pyrene] |  |  | 30 ± 2 | -25.6 | −18.91 ± 2.5 |  | average uptake rate (RHCC-NT [3]; 10 °C): 1.59 nmol/hr∙mol RHCC-NT; time for complete uptake by RHCC-NT (RHCC-NT [3]; 10 °C, emission at 384 nm): around 80 hrs; Py-value (ratio of fluorescence emission intensities of Band I/III) (RHCC-NT [3]; RHCC-NT:Pyrene time = 0, 10 °C): 1.7288; Py-value (ratio of fluorescence emission intensities of Band I/III) (RHCC-NT [3]; RHCC-NT:Pyrene time = 75 hrs, 10 °C): 0.6395 |
| c1ccc2cc3c(ccc4ccccc43)cc2c1 [benz(a)anthracene] | did not exhibit any concentration dependent fluorescence changes | uptake |  |  |  |  |  |
| c1ccc2cc3ccccc3cc2c1 [Anthracene, anthracene] |  |  | 8.7 ± 1.5 | -28.7 |  |  |  |
| c1ccc2ccccc2c1 [Naphthalene, naphthalene] |  |  | 17 ± 1.4 | -27.1 | −10.0 ± 2.5 | ca. 1 min | Fluorescence intensity at 350 nm (λexc = 275 nm) (RHCC-NT [1]; [RHCC] 0 µM): 708292; Fluorescence intensity at 350 nm (λexc = 275 nm) (RHCC-NT [1]; [RHCC] 0.12 µM): 709824; Fluorescence intensity at 350 nm (λexc = 275 nm) (RHCC-NT [1]; [RHCC] 0.24 µM): 730572; Fluorescence intensity at 350 nm (λexc = 275 nm) (RHCC-NT [1]; [RHCC] 0.48 µM): 733694; Fluorescence intensity at 350 nm (λexc = 275 nm) (RHCC-NT [1]; [RHCC] 0.96 µM): 780644; Fluorescence intensity at 350 nm (λexc = 275 nm) (RHCC-NT [1]; [RHCC] 1.9 µM): 906120; Fluorescence intensity at 350 nm (λexc = 275 nm) (RHCC-NT [1]; [RHCC] 3.8 µM): 1003650; Fluorescence intensity at 350 nm (λexc = 275 nm) (RHCC-NT [1]; [RHCC] 7.7 µM): 1177910; Fluorescence intensity at 350 nm (λexc = 275 nm) (RHCC-NT [1]; [RHCC] 15.4 µM): 1420260; Fluorescence intensity at 350 nm (λexc = 275 nm) (RHCC-NT [1]; [RHCC] 30.75 µM): 1845910; Fluorescence intensity at 350 nm (λexc = 275 nm) (RHCC-NT [1]; [RHCC] 61.5 µM): 1873130 |
| C1=Cc2cccc3cccc1c23 [Acenaphthylene, acenaphthylene] |  |  | 32 ± 7 | -25.5 |  | ca. 1 min |  |
